These results are taken from patent publication US11931347B2, “Method of screening for agents for differentiating stem cells” (MINERVA BIOTECHNOLOGIES CORPORATION, priority 2015, dated 2024).

Assay [1] relates to DU145 MUC1* positive prostate cancer cells. The assay is described as follows: cancer cell proliferation assay (Calcein). Format: cell-based. The conditions noted are these: 96 hours (FIG. 109). Here is the method: (§1) Small molecule inhibition of cancer cell proliferation studies were also performed on several cancer sub-types. […] The small molecules of the invention had the most robust effect on T47D breast cancer cells, which are highly positive for MUC1* growth factor receptor, and its activating ligands NME7AB and NME7-X1. […] For the cancer cell proliferation experiment cancer cells were plated at constant densities (6000 cells/well) into a 96-well White-walled/Clear-bottom Tissue Culture Treated plate (Corning Incorporated, Big Flats, N.Y.). Small molecule analogs are added at T=24 hours in media with 2% FBS. Following the addition of the small molecules, the cells remain untouched for 120 hours with visual confirmations/inspections at 24, 48, 72 and 96 hours post plating. At the 120 hour mark a calcein fluorescence assay (Thermo Fisher Scientific, Waltham, Mass.) is performed on the plate. Calcein fluorescence (final concentration 0.5 uM) is used to assess cell viability. Cancer cell fluorescence is measured in a TECAN SAFIRE^2 spectrophotometer plate reader. The plate is then imaged using an Olympus IX71 fluorescence imaging microscope and montage of the resulting images are assembled using ImageJ.

Assay [2] deals with PC-3 MUC1* negative, NME7AB positive prostate cancer cells. The assay is described as follows: cancer cell proliferation assay (Calcein). The conditions noted are these: 96 hours (FIG. 111). It counts as cell-based. Here is the method:
as §1

The subject of assay [3] is MDA-MB-453 breast cancer cells. As to the kind of experiment: cancer cell proliferation assay (Calcein). It counts as cell-based. The conditions noted are these: 96 hours (FIG. 110). Here is the method:
as §1

Assay [4] relates to T47D breast cancer cells. The assay is described as follows: cancer cell migration, invasion assay (Platypus/Oris system). It counts as cell-based, human. The conditions noted are these: T47D, 120 hours. Here is the method:
We then tested an expanded panel of agents, including agents known to inhibit cancer growth or migration (FIG. 17) (Horm et al., 2012; Meng & Yue, 2014; Zhen et al., 2014), which is characteristic of aggressive or metastatic cancers. We also synthesized a series of novel small molecules, tested them in the stem cell drug screening assay, and then synthesized analogs of the best hits. These small molecules are pictured in FIGS. 18-27. Both the known compounds and the novel compounds were tested in the stem cell drug screening assay. The effects of the small molecules on naïve versus primed state stem cells are shown in the photographs of FIGS. 29-72. The small molecules pictured in FIGS. 17-27 and the biologicals were also tested in a cancer cell migration assay. A structure activity relationship table is seen in FIG. 28. Potent cancer cell migration is characteristic of cancer cell invasion of other tissues and of metastasis. Typical migration assays involve coating a cell culture plate with fibronectin, collagen or the like, plating cancer cells and making a scar across through the cells and measuring the time it takes for the cancer cells to invade the void space. An alternative approach that gives more reliable data is the Platypus System which is a special multi-well cell culture plate with a juxtaposed set of plugs that block off a circle in the center of each well. Cancer cells are plated while the plugs are in place, then they are removed after the cells attach to the plate surface. […] A bar graph summarizing the results of the known anti-migration compounds compared to the anti-MUC1* Fab E6 and the first few small molecules synthesized is shown in FIG. 73. The effect of two novel small molecules MN1186 and MN1194, compared to the known anti-migration molecule SU11274, is shown in FIG. 75A-75U. FIG. 75V is a graph showing the measured inhibition of cancer cell migration at time 0, 24 hours or 48 hours for a number of compounds. […] FIG. 75X is a graph showing how IC50's of the small molecules of the invention were measured and calculated.
Percent inhibition of cancer cell migration was performed in a wound healing assay. The Percent area that the invading cancer cells occupied, in the presence of a drug candidate compared to the controls, was quantified by Image J cell software which enables cell counting from photographs. IC50's were calculated by performing migration experiments at several compound concentrations and then applying Hill's equation. Inhibition of cancer cell proliferation was quantified by automated cell counting in the presence or absence of a drug candidate. Here, the potency of the drug candidate was simply scored 4 for the highest degree of inhibition and 0 for the lowest. […] The effect of each drug candidate was scored 0-4, with 4 being the highest in inhibiting cell proliferation (FIG. 28).
For the cancer cell migration experiment cancer cells were plated at varying densities into an Oris Cell Migration Assay Collagen-1 coated 96-well plate (Platypus Technologies LLC, Madison, Wis.). The Collagen-1 coated 96-well plate incorporates a specific vacuum plug which attaches to the bottom of each well, creating an area in which the cells cannot grow into. Once the cells have been plated at high densities into each well, they are allotted an 18-24 hour time period to attach to the bottom of the wells. Post-24 hour plugs are removed from the plate and then small molecule analogs are added to the wells. Images are taken of each well and represent time 0 (T=0) for each well. Images are taken of the wells at the 24, 48, 72, 96 and 120 hour time points. Data analysis is conducted using the images taken at these specific time point. Images are imported into ImageJ (Rasband, W. S., ImageJ, U. S. National Institutes of Health, Bethesda, Md., USA, http://imagej.nih.gov/ij/, 1997-2016.) and the area remaining free of cells is calculated. […]

Assay [5] relates to T47D breast cancer cells. The assay is described as follows: cancer cell proliferation assay (Calcein live cell stain). It counts as cell-based, human. The conditions noted are these: for inhibition of growth of T47D cells: live cell Calcein stain, 96 hours (FIG. 113). Here is the method: These analogs of MN1194 and 1186 were also tested in a cell growth assay (FIGS. 107A1-107H6 and FIG. 108A1-108H6, respectively). In this experiment, both parent compound and analogs thereof were added to normal cell culture media to final concentrations of 40 uM, 20 uM, 10 uM, 5 uM or 2.5 uM. For comparison, previously known cancer cell migration inhibitors SU11274 and MN1204 were included in the same experiment. […] Relative cell proliferation is quantified on a standard plate reader that reads the fluorescence of the Calcein that is taken up by live cells.
Small molecule inhibition of cancer cell proliferation studies were also performed on several cancer sub-types. […] The small molecules of the invention had the most robust effect on T47D breast cancer cells, which are highly positive for MUC1* growth factor receptor, and its activating ligands NME7AB and NME7-X1.
For the cancer cell proliferation experiment cancer cells were plated at constant densities (6000 cells/well) into a 96-well White-walled/Clear-bottom Tissue Culture Treated plate (Corning Incorporated, Big Flats, N.Y.). Small molecule analogs are added at T=24 hours in media with 2% FBS. Following the addition of the small molecules, the cells remain untouched for 120 hours with visual confirmations/inspections at 24, 48, 72 and 96 hours post plating. At the 120 hour mark a calcein fluorescence assay (Thermo Fisher Scientific, Waltham, Mass.) is performed on the plate. Calcein fluorescence (final concentration 0.5 uM) is used to assess cell viability. Cancer cell fluorescence is measured in a TECAN SAFIRE^2 spectrophotometer plate reader. The plate is then imaged using an Olympus IX71 fluorescence imaging microscope and montage of the resulting images are assembled using ImageJ.

In assay [6] the test system is human naïve state stem cells. The assay is described as follows: stem cell drug screening assay on naïve state stem cells. Format: cell-based. The conditions noted are these: 6 uM, 3 days. Here is the method:
(§2) The stem cell screening assay, was performed in both the presence and absence of the stem cell growth factors: NME7AB for growing naïve stem cells or FGF for growing primed stem cells. If the cognate growth factor was present, then the biological or small molecule would have to compete away the growth factor to get an effect. Therefore, we expected to see more of an effect when the growth factor, FGF for primed stem cells or NME7AB or NME1 dimers for naïve stem cells, was absent. The effect of the compounds on stem cells was visually determined and compounds were ranked 0-4, with 4 being the greatest effect and 0 being no observable effect. The major effect that was observed was a change from pluripotent stem cell morphology, which is a cobblestone pattern of small round cells with a large nucleus to cytoplasm ratio, to that of differentiating stem cells, which are elongated, large and flattened cells with a smaller nucleus to cytoplasm ratio. […] The compounds were added to a final concentration of 6 uM to either naïve state stem cells or primed state stem cells. In this particular case, the naïve state stem cells were maintained in a naïve state by culturing in a media containing NME7AB or NME1 dimers. However, other methods such as 2i and 5i (Silva et al., 2008, Nichols and Smith, 2009, Theunissen et al., 2014)] can be used to maintain stem cells in a more naïve state. In this case primed state stem cells were cultured in bFGF over a layer of MEFs, although it is known that any bFGF containing media will maintain stem cells in the primed state.
Stem cells whether embryonic or induced pluripotent stem (iPS) cells were cultured in a minimal, serum-free media that contained human recombinant NME7AB at a concentration of 2-32 nM wherein 4-8 nM is preferred and 4 nM is more preferred. To facilitate surface attachment, cell culture plates were coated with an anti-MUC1* monoclonal antibody called MN-C3 or C3 or MN-C8 at a concentration of 2-100 ug/mL coating solution, wherein 3-50 ug/mL is preferred and 6-12.5 ug/mL is more preferred. In these experiments, 12.5 ug/mL of MN-C3 was used. Antibody coated plates were incubated at 4 degrees C. overnight prior to plating stem cells. A Rho kinase I inhibitor was added to enhance surface attachment. In some cases, NME7AB was substituted with human recombinant NME1 dimers which also induce stem cells to revert to a naïve-like state.
(§3) Human naïve state and primed stem cells were cultured in parallel for at least 5 passages to guarantee normal differentiation-free growth. The stem cells were plated in 12-well cell culture plates with 50,000 cells per well. Cells were cultured in their respective media, either bFGF media or NME7AB media for 24 hours. Media was then removed and replaced with media devoid of bFGF or NME7AB, when indicated. Agents being tested for their ability to induce differentiation of naïve stem cells were added to the media at the concentrations indicated. After 72 hours, photographs were taken see FIGS. 1-10.
(§4) Human naïve state and primed stem cells were cultured in parallel for at least 5 passages to guarantee normal differentiation-free growth. The stem cells were plated in 12-well cell culture plates with 50,000 cells per well. Cells were cultured in their respective media, either bFGF media or NME7AB media for 24 hours. Media was then removed and replaced with media devoid of bFGF or NME7AB. […] Media was changed after 48 hours and replaced with fresh media containing the BRD4 inhibitors. After 4 days the experiment was stopped. Photographs were taken and cell pellets collected for further analysis, see FIGS. 11-16.

Assay [7] has as its system human primed state stem cells. The assay is described as follows: stem cell drug screening assay on primed state stem cells. Format: cell-based. The conditions noted are these: 6 uM, 3 days. Here is the method: as §2
Stem cells whether embryonic or induced pluripotent stem (iPS) cells were cultured in a minimal, serum-free media that contained human recombinant bFGF at a concentration of 8 ng/mL. The stem cells were plated over a layer of inactivated mouse embryonic fibroblasts, aka MEFs, which secrete additional uncharacterized growth factors and cytokines.
as §3, §4

In the case of `CC(C)CC1c2[nH]c3cc(F)ccc3c2CCN1C(=O)CNC(=O)OC(C)(C)C` (centres unmarked) [MN1227], in assay [1], the “inhibition of growth of DU145 cells” value is listed as “inhibited the growth”. Besides, the “inhibition of growth of PC-3 cells” value in assay [2] is “inhibited the growth”. Moreover, the “inhibition of growth of MDA-MB-453 cells” value in assay [3] is “inhibited the growth”. In addition, the “inhibition of cancer cell migration” value in the assay with T47D breast cancer cells [4] is listed as “improvements over MN1186”. Also, the “inhibition of cancer cell proliferation relative to parent compounds” value with T47D breast cancer cells [5] (T47D, Calcein assay after 120 hours, 40-2.5 uM) is reported as “inhibit cancer cell proliferation better than parent compounds”. Further, in the assay on T47D breast cancer cells [5], the “inhibition of growth of T47D cells” value is listed as “severely inhibited growth”.

For the molecule `CCCCNC(=O)N1CCc2c([nH]c3ccccc23)C1C(C)c1ccccc1` (centres unmarked) [MN1130], the “inhibition of growth of DU145 cells” value in assay [1] is listed as “inhibited the growth”. The “inhibition of growth of PC-3 cells” value in assay [2] was “inhibited the growth”. Besides, the “inhibition of growth of MDA-MB-453 cells” value in assay [3] is “inhibited the growth”. The “effect on naïve stem cell pluripotency, growth or differentiation (visually determined)” value in assay [6] is on record as “induced differentiation”. Also, in assay [7], the “effect on primed stem cell pluripotency, growth or differentiation (visually determined)” value was “modest effect”. Moreover, the “inhibition of growth of T47D cells” value in the assay on T47D breast cancer cells [5] is on record as “severely inhibited growth”.

As to `CC(C)CC1c2[nH]c3ccccc3c2CCN1C(=O)C1CCC(CNC(=O)OC(C)(C)C)CC1` (centres unmarked) [MN1246], in assay [1], the “inhibition of growth of DU145 cells” value is on record as “inhibited the growth”. Besides, in assay [2], the “inhibition of growth of PC-3 cells” value was “inhibited the growth”. Moreover, the “inhibition of growth of MDA-MB-453 cells” value in assay [3] is listed as “inhibited the growth”. In the assay with T47D breast cancer cells [5], the “inhibition of growth of T47D cells” value is given as “severely inhibited growth”.

For `CC(C)CC1c2[nH]c3ccccc3c2CCN1C(=O)CCc1ccccc1` (centres unmarked) [MN1133], in assay [1], the “inhibition of growth of DU145 cells” value is on record as “inhibited the growth”. For the same molecule, the “inhibition of growth of PC-3 cells” value in assay [2] is “inhibited the growth”. In addition, the “inhibition of growth of MDA-MB-453 cells” value in assay [3] is recorded as “inhibited the growth”. Further, in the assay on T47D breast cancer cells [5], the “inhibition of growth of T47D cells” value was “severely inhibited growth”.
